We go through 3 compounds from publication PMC3445653 (Neuropharmacology, 2012).

Data set [1] has as its target T1, PKMζ (Homo sapiens, UniProt Q05513).
T1 sequence (Q05513 1-409 isoform Q05513-2): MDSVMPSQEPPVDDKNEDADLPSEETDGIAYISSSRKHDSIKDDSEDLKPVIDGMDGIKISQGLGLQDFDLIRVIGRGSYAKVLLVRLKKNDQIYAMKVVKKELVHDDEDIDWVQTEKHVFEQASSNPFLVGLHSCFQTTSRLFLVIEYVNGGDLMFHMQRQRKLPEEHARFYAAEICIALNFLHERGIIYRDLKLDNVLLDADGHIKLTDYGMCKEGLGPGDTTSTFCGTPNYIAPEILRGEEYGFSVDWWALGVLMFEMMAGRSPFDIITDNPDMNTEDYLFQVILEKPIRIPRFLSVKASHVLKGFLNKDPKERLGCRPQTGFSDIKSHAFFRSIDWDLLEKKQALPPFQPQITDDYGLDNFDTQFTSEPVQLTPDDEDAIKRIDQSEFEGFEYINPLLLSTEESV
The data set is described as follows: PKMζ phosphorylation assay, PKCε substrate. In kind it is biochemical.

The subject of data set [2] is PKMζ-RFP fusion protein. As to conditions: ref Wu-Zhang et al., 2012, cited from earlier work.
In data set [3] the target is T1, PKMζ. As to conditions: ref Ling et al., 2002; cited from earlier work.
The test system of data set [4] is catalytic domain of PKC. The settings on record: ref Herbert et al., 1990, cited from earlier work.
Data set [5] concerns PDK1 phosphorylation of PKMζ (T410). Description: Activation loop. The format is cell-based, Sprague Dawley rats. The settings on record: 100 nM for 4 hr, control vs staurosporine p = 0.9, n = 5.
Data set [6] deals with baseline fEPSPs in hippocampal slices. The data set is described as follows: Baseline fEPSP in hippocampal slices. The format is cell-based, Sprague Dawley rats. As to conditions: 100 nM; p = 0.8 between 10 and 60 min; n = 4.
The subject of data set [7] is PDK1 phosphorylation of N-terminally tagged, eGFP-PKMζ overexpressed in 293T cells. The data set is described as follows: Activation loop phosphorylation of eGFP-PKMζ overexpressed in 293T cells. As to conditions: 100 nM for 4 hr; A. Tcherepanov and T. C. Sacktor, unpublished data. The format is cell-based.
For data set [8], the system named is LTP maintenance. The settings on record: cited from earlier work.
Data set [9] relates to LTP induction. As to conditions: 100 nM; hippocampal slices; ref Ling et al., 2002; cited from earlier work.
Data set [10] has as its system baseline postsynaptic AMPAR responses in CA1 pyramidal cells of hippocampal slices. Description: Baseline postsynaptic AMPAR-mediated EPSCs. The settings on record: 5 μM scrambled ZIP; p = 0.6, 1 min before application vs 15 min after; n = 4. The format is cell-based, Sprague Dawley rats.

Entries after “also recorded” stand apart in the source; their conditions may differ. Where two headings read alike, the source gives them in different places.

As for `COc1ccc2c(c[n+](C)c3c4cc5c(cc4ccc23)OCO5)c1OC` [chelerythrine], the “inhibition of PKMζ, 10 μM DTT” value in [1] (DTT 10 μM, PKMζ 5 nM, 25 μM PKCε substrate, n = 4) is reported as “effective”. In addition, in [1] (DTT 1 mM, PKMζ 5 nM, 25 μM PKCε substrate, n = 4), the “inhibition of PKMζ, 1 mM DTT” value is “much less effective”. Also, the “sensitivity to redox state” value in [1] (high levels of dithiothreitol (DTT), PKMζ 5 nM) is “redox-sensitive inhibitor of PKMζ; also recorded: sensitive to redox state”. Further, the “inhibition of PKMζ fusion protein in transfected cultured cells” value in data set [2] is on record as “did not inhibit”. Besides, the “inhibition of PKM forms” value in data set [3] was “highly effective on PKM forms; also recorded: particularly effective on PKM forms”. Moreover, in data set [4] (inhibition of substrate binding), the mode of inhibition result was “competitive inhibitors of substrate binding”. In addition, the “inhibition of catalytic domain of PKC” value in [4] (Thompson and Fields, 1996) was “inhibitor of the catalytic domain of PKC”.

`CN[C@@H]1C[C@H]2O[C@@](C)([C@@H]1OC)n1c3ccccc3c3c4c(c5c6ccccc6n2c5c31)C(=O)NC4` [staurosporine]: the “phosphorylation state of the activation loop of PKMζ (T410P)” value is on record as “no effect” in [5] and “does not alter the phosphorylation state” in data set [5] (listed as Staurosporine). Also, the “effect on baseline fEPSP” value in data set [6] is given as “no effect on baseline”. In addition, the “PDK1 phosphorylation of eGFP-PKMζ” value in [7] was “no effect”. In addition, the “activation loop phosphorylation of overexpressed PKMζ-RFP” value in data set [2] (cultured cells) is given as “reduce activation loop phosphorylation”. In data set [8] (100 nM, 4 hours, hippocampal slices, ref Ling et al., 2002), the “effect on LTP maintenance” value is reported as “does not reverse LTP maintenance; also recorded: but not LTP maintenance”. For the same compound, the “effect on LTP induction” value in data set [9] is “prevented LTP induction; also recorded: block LTP induction”.

For the compound myr-RLYRKRIWRSAGR-OH [scrambled ZIP], the “efficacy on inhibiting PKMζ biochemically in vitro relative to ZIP” value in [1] (Fig. 4A, right, compared with ZIP) is “less effective”. The “inhibition of PKMζ at higher doses” value in [1] (higher doses, Fig. 4A, right) is reported as “will also inhibit PKMζ at higher doses”. In addition, the “effect on baseline postsynaptic AMPAR responses” value in data set [10] was “no effect”. In addition, in data set [8] (dose equivalent to ZIP (5 μM), ref Serrano et al., 2005), the “effect on LTP maintenance” value is reported as “ineffective”.
